Tested on: virulent Mtb strain H37Rv
Type: cell-based, Mycobacterium tuberculosis

Row | SMILES | EC80 (microbicidal activity, TB replication in macrophages) [µM] | microbicidal activity compared with S-CQ or racemic CQ
1 | CCN(CC)CCC[C@H](C)Nc1ccnc2cc(Cl)ccc12 [S-CQ, (S)-chloroquine] | ~10 | 
2 | CCN(CC)CCC[C@@H](C)Nc1ccnc2cc(Cl)ccc12 [R-CQ, (R)-chloroquine] | 1 | significantly higher
3 | CCN(CC)CCCC(C)Nc1ccnc2cc(Cl)ccc12 (racemic) [racemic CQ, chloroquine] | ~10 | 

Source: patent publication US20160113919A1 (The Board of Trustees of the Leland Stanford Junior …, priority 2014, published 2016)
